In PubChem BioAssay (NCI):
Where “and” joins values, the source holds several entries; their conditions need not be identical. Equal values may be shown once.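 Tested at 5 concentrations; 48 h exposure; 96-well plates; endpoints linearly interpolated, else capped at highest concentration. GI50 is the concentration that inhibits growth by half. Definition used: TGI = concentration required for complete inhibition of growth.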

Columns and labels:
Experiment in all cases: NCI-60 cell line screen, 48 h; in the data active = GI50 below about 0.43 µM; inactive = the rest
[1] = tested on: M14 melanoma
[2] = tested on: SNB-75 CNS
[3] = tested on: U251 CNS
[4] = tested on: SN12C renal
[5] = tested on: HOP-92 NSCLC
[6] = tested on: RPMI-8226 leukemia
[7] = tested on: SK-OV-3 ovarian
[8] = tested on: OVCAR-3 ovarian
[9] = tested on: UO-31 renal
[10] = tested on: HL-60(TB) leukemia
[11] = tested on: HCC-2998 colon
[12] = tested on: NCI-H23 lung
[13] = tested on: HS 578T breast
[14] = tested on: UACC-62 melanoma
[15] = tested on: BT-549 breast
[16] = tested on: SF-268 CNS
[17] = tested on: MDA-N
[18] = tested on: SF-539 CNS
[19] = tested on: MOLT-4 leukemia
[20] = tested on: UACC-257 melanoma
[21] = tested on: HOP-62 NSCLC
[22] = tested on: RXF 393 renal
[23] = tested on: NCI-H226 lung
[24] = tested on: SK-MEL-2 melanoma
[25] = tested on: CCRF-CEM leukemia
[26] = tested on: 786-0 renal
[27] = tested on: K-562 leukemia
[28] = tested on: T-47D breast
[29] = tested on: MDA-MB-231 breast
[30] = tested on: COLO 205 colon
[31] = tested on: MDA-MB-435
[32] = tested on: OVCAR-5 ovarian
[33] = tested on: A498 renal
[34] = tested on: IGROV1 ovarian
[35] = tested on: MALME-3M melanoma
[36] = tested on: SF-295 CNS
[37] = tested on: SW-620 colon
[38] = tested on: LOX IMVI melanoma
[39] = tested on: NCI-H460 lung
[40] = tested on: HT29 colon
[41] = tested on: MCF7 breast
[42] = tested on: PC-3 prostate
[43] = tested on: A549 NSCLC
[44] = tested on: CAKI-1 renal
[45] = tested on: OVCAR-8 ovarian
[46] = tested on: SK-MEL-5 melanoma
[47] = tested on: KM12 colon
[48] = tested on: SK-MEL-28 melanoma
[49] = tested on: HCT-15 colon
[50] = tested on: EKVX NSCLC
[51] = tested on: SNB-19 CNS
[52] = tested on: OVCAR-4 ovarian
[53] = tested on: TK-10 renal
[54] = tested on: ACHN renal
[55] = tested on: NCI/ADR-RES ovarian
[56] = tested on: NCI-H522 lung
[57] = tested on: SR leukemia
[58] = tested on: HCT-116 colon

CC(C)NCCCNc1c2ccccc2nc2cccc([N+](=O)[O-])c12
103 nM: TGI [39]
239 nM: TGI [44]
7.96 nM and 26.2 nM: TGI [6]
39.7 nM: TGI [5]
35.2 nM and 134 nM: TGI [34]
4650 nM and 24400 nM: TGI [55]
289 nM and 74.8 nM: TGI [48]
290 nM and 113 nM: TGI [13]
16.9 nM and 10.4 nM: TGI [27]
45.1 nM and 173 nM: TGI [36]
47 nM and 114 nM: TGI [29]
228 nM and 40.9 nM: TGI [18]
80.9 nM and 24.4 nM: TGI [21]
32.8 nM and 43.2 nM: TGI [33]
38 nM: TGI [42]
119 nM and 49.6 nM: TGI [3]
157 nM and 59.9 nM: TGI [15]
40.9 nM and 28.4 nM: TGI [47]
21.6 nM: TGI [40]
79.1 nM and 268 nM: TGI [50]
9.08 nM: TGI [12]
16.5 nM: TGI [11]
25.6 nM and 116 nM: TGI [38]
85.4 nM and 64.4 nM: TGI [25]
16.3 nM: TGI [46]
170 nM and 45.8 nM: TGI [20]
13 nM and 16.8 nM: TGI [30]
25.4 nM and 16.9 nM: TGI [19]
37.4 nM and 31 nM: TGI [14]
394 nM and 273 nM: TGI [7]
23.6 nM: TGI [52]
29.9 nM: TGI [24]
18.3 nM: TGI [22]
209 nM and 237 nM: TGI [37]
451 nM and 148 nM: TGI [9]
463 nM and 70.8 nM: TGI [53]
97.4 nM and 45.2 nM: TGI [2]
active: GI50 [2] 16.1 nM | GI50 [9] 30.6 nM | GI50 [10] 10.2 nM | GI50 [13] 21.8 nM | GI50 [15] 22.2 nM | GI50 [16] 16.7 nM | GI50 [18] 14.2 nM | GI50 [20] 19.4 nM | GI50 [25] 11.8 nM | GI50 [26] 10.8 nM | GI50 [29] 10.7 nM | GI50 [33] 12.3 nM | GI50 [35] 12 nM | GI50 [38] 15.3 nM | GI50 [48] 24.4 nM | GI50 [50] 37.2 nM | GI50 [51] 11.2 nM
90.3 nM: TGI [23]
inactive: GI50 [55] 1860 nM
29.2 nM: TGI [17]
150 nM and 58.5 nM: TGI [43]
58.2 nM and 96.8 nM: TGI [28]
32.3 nM and 182 nM: TGI [16]
57 nM and 106 nM: TGI [54]
43 nM: TGI [41]
22.5 nM and 18.6 nM: TGI [31]
37 nM: TGI [8]
> 100000 nM: TGI [49]
24.4 nM: TGI [1]
55.5 nM: TGI [45]
32.5 nM and 70.4 nM: TGI [26]
150 nM: TGI [4]
145 nM and 18.3 nM: TGI [32]
27.2 nM and 47.1 nM: TGI [35]

c1cncc(CNCCN2CCNCC2)c1
> 100000 nM: TGI [1] | TGI [2] | TGI [3] | TGI [4] | TGI [5] | TGI [6] | TGI [7] | TGI [8] | TGI [9] | TGI [56] | TGI [12] | TGI [13] | TGI [14] | TGI [15] | TGI [16] | TGI [57] | TGI [17] | TGI [18] | TGI [19] | TGI [20] | TGI [21] | TGI [22] | TGI [23] | TGI [24] | TGI [26] | TGI [27] | TGI [28] | TGI [29] | TGI [30] | TGI [31] | TGI [32] | TGI [58] | TGI [33] | TGI [34] | TGI [35] | TGI [36] | TGI [37] | TGI [38] | TGI [39] | TGI [40] | TGI [41] | TGI [42] | TGI [43] | TGI [44] | TGI [45] | TGI [46] | TGI [47] | TGI [48] | TGI [49] | TGI [50] | TGI [51] | TGI [52] | TGI [53] | TGI [54] | TGI [55]

Cc1cc(S(=O)(=O)N/C(=C(\C#N)C(=O)c2ccccc2)[n+]2ccc(N(C)C)cc2)c([S-])cc1Cl
94000 nM: TGI [35]
> 100000 nM: TGI [1] | TGI [3] | TGI [4] | TGI [6] | TGI [7] | TGI [8] | TGI [9] | TGI [10] | TGI [56] | TGI [12] | TGI [13] | TGI [14] | TGI [15] | TGI [16] | TGI [57] | TGI [17] | TGI [18] | TGI [19] | TGI [20] | TGI [21] | TGI [22] | TGI [23] | TGI [24] | TGI [25] | TGI [26] | TGI [27] | TGI [28] | TGI [29] | TGI [30] | TGI [31] | TGI [32] | TGI [58] | TGI [33] | TGI [34] | TGI [36] | TGI [39] | TGI [40] | TGI [41] | TGI [42] | TGI [43] | TGI [44] | TGI [45] | TGI [46] | TGI [47] | TGI [48] | TGI [49] | TGI [50] | TGI [51] | TGI [52] | TGI [53] | TGI [54] | TGI [55]
994 nM: TGI [5]

CC1CC(c2ccccc2)Nc2nc3ccccc3n21 (stereo unspecified)
> 100000 nM: TGI [1] | TGI [2] | TGI [3] | TGI [5] | TGI [6] | TGI [7] | TGI [8] | TGI [9] | TGI [10] | TGI [56] | TGI [12] | TGI [13] | TGI [14] | TGI [15] | TGI [16] | TGI [57] | TGI [17] | TGI [18] | TGI [19] | TGI [20] | TGI [21] | TGI [22] | TGI [23] | TGI [24] | TGI [25] | TGI [26] | TGI [27] | TGI [28] | TGI [29] | TGI [30] | TGI [31] | TGI [32] | TGI [58] | TGI [33] | TGI [34] | TGI [35] | TGI [36] | TGI [37] | TGI [38] | TGI [39] | TGI [40] | TGI [41] | TGI [42] | TGI [43] | TGI [44] | TGI [45] | TGI [46] | TGI [47] | TGI [48] | TGI [49] | TGI [50] | TGI [51] | TGI [52] | TGI [53] | TGI [54] | TGI [55]
